The values that follow come from patent publication US5393883A, “Antiviral combinations and compounds therefor” (Burroughs Wellcome Co., priority 1988, dated 1995).

As a reminder, the inhibition is how much of the control response was suppressed.

The test has as its system HSV-2. As to the kind of experiment: dye uptake method: prevention of HSV-2 cytopathic effect in Vero cells, acyclovir with ribonucleotide reductase inhibitor (Compound A). It counts as cell-based. The method, then: The ribonucleotide reductase inhibitors of the present invention were shown by use of the dye uptake method described by McLaren, Ellis and Hunter in Antivir. Res. 3, 223-234 (1983) to potentiate the in vitro antiviral effects of acyclovir. Vero cells (20,000 cells/well) were incubated in microtiter wells for 24 hours. Various concentrations of acyclovir and the ribonucleotide reductase inhibitors were added and the cells were infected with 30 infectious particles/well of HSV-1 or HSV-2. After 3 days incubation, the antiviral effects were assessed by determining the prevention of the cytopathic effects of the viruses. Examples of the synergistic antiherpes activity of 2-acetylpyridine (4,5-dihydro-5-thioxo-1,3,4-thiadiazol-2-yl)-hydrazone (Compound A) and acyclovir (ACV) are given below.

pIC50: −log10 of the molar value. Where two headings read alike, the source gives them in different places.

As for `CC(=NNc1n[nH]c(=S)s1)c1ccccn1` [Compound A, 2-acetylpyridine (4,5-dihydro-5-thioxo-1,3,4-thiadiazol-2-yl)-hydrazone], the inhibition at 0.4 µM (Human alphaherpesvirus 2, Vero, 0.4 μM Compound A alone, read-out: % inhibition of virus replication by Compound A alone) was 0%. Also, the inhibition at 0.9 µM (Human alphaherpesvirus 2, Vero, 0.9 μM Compound A alone, read-out: % inhibition of virus replication by Compound A alone) turned out to be 0%. The inhibition at 1.3 µM (Human alphaherpesvirus 2, Vero, 1.3 μM Compound A alone, read-out: % inhibition of virus replication by Compound A alone) was determined as 21%. Further, where the note is “Human alphaherpesvirus 2, Vero, read-out: IC50 of Compound A alone (inhibition of virus replication)”, the pIC50 was 5.80.
As to `Nc1nc2c(ncn2COCCO)c(=O)[nH]1` [ACV, 9-(2-hydroxyethoxymethyl)guanine, reference compound], for the setting “ACV alone”, the “IC50 Calculated (theoretical value for the additive combined effects of ACV and Compound A)” value is 5.7 µM. Further, the pIC50 (Human alphaherpesvirus 2, Vero, 72 h, read-out: IC50 Observed (concentration of ACV required to inhibit HSC2 replication by 50%)) is 5.24.
